Laboratory results as given in EP0620225B1, “Cephalosporin derivatives” (Basilea Pharmaceutica AG, priority 1993, dated 1994).
In brackets after ≈: the same amount, converted by molar mass.

Key:
[1] = test system: Acinetobacter sp.51-156; assay: Antibacterial spectrum (MIC), agar dilution; type: cell-based; details: SP.51156, read-out: MIC
Method: (§1) In vitro activity was determined by minimum inhibitory concentration in a microorganism spectum by the agar dilution method in Mueller Hinton agar.

[2] = test system: C.freundii 43; assay: Antibacterial spectrum (MIC), agar dilution; type: cell-based; details: Citrobacter freundii, read-out: MIC
Method: as §1

[3] = test system: C.freundii 902; assay: Antibacterial spectrum (MIC), agar dilution; type: cell-based; details: Citrobacter freundii, read-out: MIC
Method: as §1

[4] = test system: E.cloacae 908R; assay: Antibacterial spectrum (MIC), agar dilution; type: cell-based; details: Enterobacter cloacae, read-out: MIC
Method: as §1

[5] = test system: E.cloacae 908SSi; assay: Antibacterial spectrum (MIC), agar dilution; type: cell-based; details: Enterobacter cloacae, read-out: MIC
Method: as §1

[6] = test system: E.coli 25922; assay: Antibacterial spectrum (MIC), agar dilution; type: cell-based; details: Escherichia coli, read-out: MIC
Method: as §1

[7] = test system: E.faecalis 6; assay: Antibacterial spectrum (MIC), agar dilution; type: cell-based; details: Enterococcus faecalis, read-out: MIC
Method: as §1

[8] = test system: H.influenzae 1; assay: Antibacterial spectrum (MIC), agar dilution; type: cell-based; details: Haemophilus influenzae, read-out: MIC
Method: as §1

[9] = test system: K.pneumoniae 418; assay: Antibacterial spectrum (MIC), agar dilution; type: cell-based; details: Klebsiella pneumoniae, read-out: MIC
Method: as §1

[10] = test system: M.catarrhalis RA21; assay: Antibacterial spectrum (MIC), agar dilution; type: cell-based; details: Moraxella catarrhalis, read-out: MIC
Method: as §1

[11] = test system: M.morganii 6H-137; assay: Antibacterial spectrum (MIC), agar dilution; type: cell-based; details: Morganella morganii, 6H137, read-out: MIC
Method: as §1

[12] = test system: N.meningitidis 69480; assay: Antibacterial spectrum (MIC), agar dilution; type: cell-based; details: Neisseria meningitidis, read-out: MIC
Method: as §1

[13] = test system: P.aeruginosa 27853; assay: Antibacterial spectrum (MIC), agar dilution; type: cell-based; details: Pseudomonas aeruginosa, read-out: MIC
Method: as §1

[14] = test system: P.mirabilis 2117; assay: Antibacterial spectrum (MIC), agar dilution; type: cell-based; details: Proteus mirabilis, read-out: MIC
Method: as §1

[15] = test system: P.vulgaris 1028; assay: Antibacterial spectrum (MIC), agar dilution; type: cell-based; details: Proteus vulgaris, read-out: MIC
Method: as §1

[16] = test system: S.agalactiae QK44; assay: Antibacterial spectrum (MIC), agar dilution; type: cell-based; details: Streptococcus agalactiae, read-out: MIC
Method: as §1

[17] = test system: S.aureus 6538; assay: Antibacterial spectrum (MIC), agar dilution; type: cell-based; details: Staphylococcus aureus, read-out: MIC
Method: as §1

[18] = test system: S.aureus 734 MRSA; assay: Antibacterial spectrum (MIC), agar dilution; type: cell-based; details: Staphylococcus aureus, read-out: MIC
Method: as §1

[19] = test system: S.marcescens 69438; assay: Antibacterial spectrum (MIC), agar dilution; type: cell-based; details: Serratia marcescens, read-out: MIC
Method: as §1

[20] = test system: S.pneumoniae Q19; assay: Antibacterial spectrum (MIC), agar dilution; type: cell-based; details: Streptococcus pneumoniae, read-out: MIC
Method: as §1

[21] = test system: S.pyogenes B15; assay: Antibacterial spectrum (MIC), agar dilution; type: cell-based; details: Streptococcus pyogenes, read-out: MIC
Method: as §1

[22] = test system: S.viridans group 016; assay: Antibacterial spectrum (MIC), agar dilution; type: cell-based; details: Streptococcus viridans, read-out: MIC
Method: as §1

[23] = test system: X.maltophilia 1AC739; assay: Antibacterial spectrum (MIC), agar dilution; type: cell-based; details: Stenotrophomonas maltophilia, read-out: MIC
Method: as §1

[24] = test system: S.aureus MSSA; assay: In vitro activity against selected species (MIC50, MIC90, range); type: cell-based; details: Staphylococcus aureus, medium MHB (Mueller Hinton Broth); for MIC: MIC range
[25] = test system: S.pneumoniae PEN-R; assay: as above; type: cell-based; details: Streptococcus pneumoniae; for MIC: MIC range
[26] = test system: S.viridans group; assay: as above; type: cell-based; details: Streptococcus viridans
[27] = test system: E.faecalis; assay: as above; type: cell-based; details: Enterococcus faecalis, medium MHA; for MIC: MIC range
Method: as §1

[28] = test system: S.aureus MRSA; assay: as above; type: cell-based; details: Staphylococcus aureus, medium MHA (Mueller Hinton Agar) +NaCl; for MIC: MIC range
Method: as §1

[29] = test system: E.faecium; assay: In vitro activity against selected species (MIC50, range); type: cell-based; details: Enterococcus faecium, medium MHA; for MIC: MIC range
Method: as §1

[30] = test system: M.catarrhalis; assay: In vitro activity against selected species (MIC50, MIC90, range); type: cell-based; details: Moraxella catarrhalis, medium IsoB
[31] = test system: Escherichia coli 25922; assay: Efficacy against systemic infections (septicemia) in mice; type: in vivo; details: 96 h, survival day 4
Method: (§2) Septicemia was induced in outbred Swiss albino mice (Jbm MoRo [specific pathogen free]; weight 16 to 20 g, Biomedical Research Laboratories, Füllinsdorf, Switzerland). Mice were infected by intraperitoneal injection of diluted overnight cultures of the test organisms. Bacterial challenge doses were 4-10 times the number of organisms required to kill 50% of untreated animals within 48 h. The test compounds were administered p.o. or s.c. 1 and 3 h after the bacterial challenge. To treat the infection with Pseudomonas aeruginosa BA an additional dose was given 5 h after challenge. Control and treatment groups at each dose were composed of five mice each. The 50% effective dose (ED50, in milligrams per kilogram) was calculated by probit analysis as described by Finney (Finney, D.J. 1978, Statistical method in biological assay, 3rd ed. Charles Griffin & Co., Ltd., London), from the survival rates on day 4 after infection.

[32] = test system: S.aureus Smith; assay: as above; type: in vivo; details: Staphylococcus aureus, 96 h, sc 1 and 3 h after challenge, survival day 4
Method: as §2

[33] = test system: E.faecalis; assay: In vitro activity against selected species (MIC50, MIC90, range); type: cell-based; details: Enterococcus faecalis, medium IsoB
[34] = test system: L.monocytogenes BK23; assay: Antibacterial spectrum (MIC), agar dilution; type: cell-based; details: Listeria monocytogenes, read-out: MIC
Method: as §1

[35] = medium IsoB (Isosensitest Broth)
[36] = Escherichia coli, E.coli 25922, sc 1 and 3 h after challenge

Nc1nc(/C(=N/O)C(=O)N[C@@H]2C(=O)N3C(C(=O)O)=C(/C=C4\CCN(C5CC5)C4=O)CS[C@H]23)cs1 [D, [6R-[3(E),6α,7β(Z)]]-7-[[(2-Amino-4-thiazolyl)(hydroxyimino)-acetyl]amino] -3-[[1-cyclopropyl-2-oxo-3-pyrrolidinylidene]-methyl)-8-oxo-5-thia-1-azabicyclo[4.2.0]-oct-2-ene-2-carboxylic acid] was tested, and the MIC [1] was 16 µg/mL (≈ 31.7 µM), the MIC [2] was 2 µg/mL (≈ 3.96 µM) and the MIC [3] was no more than 0.06 µg/mL. It also gave an MIC [4] of 8 µg/mL (≈ 15.9 µM), an MIC [5] of 0.12 µg/mL (≈ 0.238 µM) and an MIC [6] of no more than 0.06 µg/mL. For the same molecule, the MIC [7] was 1 µg/mL (≈ 1.98 µM), the MIC [8] was 0.25 µg/mL (≈ 0.495 µM) and the MIC [9] was no more than 0.06 µg/mL. The MIC [10] was 8 µg/mL (≈ 15.9 µM), the MIC [11] was no more than 0.06 µg/mL and the MIC [12] was no more than 0.06 µg/mL. It also gave an MIC [13] of 8 µg/mL (≈ 15.9 µM), an MIC [14] of no more than 0.06 µg/mL and an MIC [15] of 1 µg/mL (≈ 1.98 µM). For the same molecule, the MIC [16] was 0.25 µg/mL (≈ 0.495 µM), the MIC [17] was 0.5 µg/mL (≈ 0.991 µM) and the MIC [18] was 16 µg/mL (≈ 31.7 µM). The MIC [19] was 0.5 µg/mL (≈ 0.991 µM), the MIC [20] was no more than 0.06 µg/mL and the MIC [21] was no more than 0.06 µg/mL. For the same molecule, the MIC [22] was 1 µg/mL (≈ 1.98 µM), the MIC [23] was greater than 32 µg/mL and the MIC [24] was 0.5 to 1 µg/mL (≈ 0.991 to 1.98 µM). The MIC50 [24] was 1 µg/mL (≈ 1.98 µM), the MIC90 [24] was 1 µg/mL (≈ 1.98 µM) and the MIC [25, 35] was 0.12 to 0.5 µg/mL (≈ 0.238 to 0.991 µM). For the same molecule, the MIC ([25]; medium IsoB + 20% serum) was 0.12 to 0.5 µg/mL, the MIC50 [25, 35] was 0.25 µg/mL (≈ 0.495 µM) and the MIC90 [25, 35] was 0.5 µg/mL (≈ 0.991 µM). For the same molecule, the MIC50 ([25]; medium IsoB + 20% serum) was 0.5 µg/mL, the MIC50 [26] was 2 µg/mL (≈ 3.96 µM) and the MIC90 [26] was 2 µg/mL (≈ 3.96 µM). For the same molecule, the MIC ([26]; MIC range) was 0.12 to 8 µg/mL (≈ 0.238 to 15.9 µM), the MIC [27] was 1 to 2 µg/mL (≈ 1.98 to 3.96 µM) and the MIC50 [27] was 1 µg/mL (≈ 1.98 µM). It also gave an MIC90 [27] of 2 µg/mL (≈ 3.96 µM), an MIC [28] of 16 to 32 µg/mL (≈ 31.7 to 63.4 µM) and an MIC50 [28] of 16 µg/mL (≈ 31.7 µM). The MIC90 [28] was 16 µg/mL (≈ 31.7 µM), the MIC [29] was 1 to 32 µg/mL (≈ 1.98 to 63.4 µM) and the MIC50 [29] was 4 µg/mL (≈ 7.93 µM). For the same molecule, the MIC ([30]; MIC range) was 1 to 32 µg/mL (≈ 1.98 to 63.4 µM), the MIC50 [30] was 4 µg/mL (≈ 7.93 µM) and the MIC90 [30] was 16 µg/mL (≈ 31.7 µM). It also gave an ED50 ([31]; Escherichia coli 25922, po (orally) 1 and 3 h after challenge) of 3 mg/kg, an ED50 [31, 36] of no more than 0.1 mg/kg and an ED50 [32] of less than 1 mg/kg. The MIC ([33]; MIC range) was 0.25 to 2 µg/mL (≈ 0.495 to 3.96 µM), the MIC50 [33] was 1 µg/mL (≈ 1.98 µM) and the MIC90 [33] was 2 µg/mL (≈ 3.96 µM).

Molecule Nc1nc(/C(=N/O)C(=O)N[C@@H]2C(=O)N3C(C(=O)O)=C(/C=C4\CCN(CCF)C4=O)CS[C@H]23)cs1 [F, [6R-[3(E),6α,7β(Z)]]-7-[[(2-Amino-4-thiazolyl)(hydroxyimino)-acetyl]amino] -3-[[1-(2-fluoroethyl)-2-oxo-3-pyrrolidinylidene]methyl] -8-oxo-5-this-1-azabicyclo[4.2.0]-oct-2-ene-2-carboxylic acid] has an MIC [1] of 16 µg/mL (≈ 31.3 µM), an MIC [2] of 4 µg/mL (≈ 7.84 µM) and an MIC [3] of 0.12 µg/mL (≈ 0.235 µM). It also gave an MIC [4] of 16 µg/mL (≈ 31.3 µM), an MIC [5] of 0.12 µg/mL (≈ 0.235 µM) and an MIC [6] of no more than 0.06 µg/mL. It also gave an MIC [7] of 1 µg/mL (≈ 1.96 µM), an MIC [8] of 0.12 µg/mL (≈ 0.235 µM) and an MIC [9] of no more than 0.06 µg/mL. For the same molecule, the MIC [34] was 2 µg/mL (≈ 3.92 µM), the MIC [10] was 8 µg/mL (≈ 15.7 µM) and the MIC [11] was no more than 0.06 µg/mL. It also gave an MIC [12] of no more than 0.06 µg/mL, an MIC [13] of 32 µg/mL (≈ 62.7 µM) and an MIC [14] of no more than 0.06 µg/mL. The MIC [15] was 2 µg/mL (≈ 3.92 µM), the MIC [16] was 0.12 µg/mL (≈ 0.235 µM) and the MIC [17] was 0.5 µg/mL (≈ 0.979 µM). The MIC [18] was 8 µg/mL (≈ 15.7 µM), the MIC [19] was 0.5 µg/mL (≈ 0.979 µM) and the MIC [20] was no more than 0.06 µg/mL. It also gave an MIC [21] of no more than 0.06 µg/mL, an MIC [22] of 0.5 µg/mL (≈ 0.979 µM) and an MIC [23] greater than 32 µg/mL. For the same molecule, the MIC [24] was 0.5 to 1 µg/mL (≈ 0.979 to 1.96 µM), the MIC50 [24] was 0.5 µg/mL (≈ 0.979 µM) and the MIC90 [24] was 1 µg/mL (≈ 1.96 µM). It also gave an MIC ([25]; medium IsoB + 20% serum) of 0.12 to 0.5 µg/mL, an MIC50 ([25]; medium IsoB + 20% serum) of 0.5 µg/mL and an MIC [27] of 0.5 to 2 µg/mL (≈ 0.979 to 3.92 µM). It also gave an MIC50 [27] of 1 µg/mL (≈ 1.96 µM), an MIC90 [27] of 2 µg/mL (≈ 3.92 µM) and an MIC [28] of 8 to 16 µg/mL (≈ 15.7 to 31.3 µM). For the same molecule, the MIC50 [28] was 8 µg/mL (≈ 15.7 µM), the MIC90 [28] was 8 µg/mL (≈ 15.7 µM) and the MIC [29] was 1 to 16 µg/mL (≈ 1.96 to 31.3 µM). For the same molecule, the MIC50 [29] was 2 µg/mL (≈ 3.92 µM), the ED50 [31, 36] was less than 0.1 mg/kg and the ED50 [32] was less than 1 mg/kg.
